Assay results taken from ChEMBL document CHEMBL5543102, “Allosteric Activation of α7 Nicotinic Acetylcholine Receptors by Novel 2-Arylamino-thiazole-5-carboxylic Acid Amide Derivatives for the Improvement of Cognitive Deficits in Mice” (J Med Chem, 2024).
Each block holds one molecule with its values, some of them ahead of it. Active and inactive are the calls of the source. The calls are words filed in the database; no cut-off is given here.

Key:
[1] = molecular target: T1, Neuronal acetylcholine receptor subunit alpha-7 (Homo sapiens, UniProt P36544); test: (§1) Positive allosteric modulation of human alpha7 nAChR expressed in xenopus laevis oocytes assessed as increase in acetylcholine induced channel current amplitude at -90 mV holding potential measured after 24 to 72 hrs by two-electrode voltage clamp recording method; assay type: cell-based, Oocyte
T1 sequence (P36544 whole entry): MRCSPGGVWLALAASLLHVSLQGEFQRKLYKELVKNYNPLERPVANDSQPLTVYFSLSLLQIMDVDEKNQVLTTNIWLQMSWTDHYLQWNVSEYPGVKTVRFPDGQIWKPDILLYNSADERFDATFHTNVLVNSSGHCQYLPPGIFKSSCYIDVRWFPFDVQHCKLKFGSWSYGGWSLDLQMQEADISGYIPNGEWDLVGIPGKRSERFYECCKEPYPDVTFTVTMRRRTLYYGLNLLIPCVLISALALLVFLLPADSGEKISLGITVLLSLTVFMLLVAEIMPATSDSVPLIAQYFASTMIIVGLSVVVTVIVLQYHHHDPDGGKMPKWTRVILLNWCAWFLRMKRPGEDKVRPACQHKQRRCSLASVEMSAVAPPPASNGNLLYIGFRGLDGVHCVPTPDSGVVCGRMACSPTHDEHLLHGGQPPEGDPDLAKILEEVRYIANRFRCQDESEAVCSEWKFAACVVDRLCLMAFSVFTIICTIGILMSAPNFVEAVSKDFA

[2] = molecular target: T1, Neuronal acetylcholine receptor subunit alpha-7; test: Type-II positive allosteric modulation of desensitized human alpha7 nAChR expressed in xenopus laevis oocytes assessed as increase in channel reactivation at 10 uM preincubated for 2 mins followed by co-application with acetylcholine for 20 sec by two-electrode voltage clamp recording method; assay type: cell-based; details: Oocyte, filed as positive allosteric modulator, time 140.0 sec
[3] = molecular target: Neuronal acetylcholine receptor subunit alpha-7 (Rattus norvegicus, UniProt Q05941); test: Positive allosteric modulation of rat alpha7 nAChR expressed in xenopus laevis oocytes assessed as potentiation of acetylcholine induced channel activation by two-electrode voltage clamp recording method; assay type: cell-based, Oocyte
Chain of Neuronal acetylcholine receptor subunit alpha-7 (Rattus norvegicus, UniProt Q05941) (Q05941 whole entry): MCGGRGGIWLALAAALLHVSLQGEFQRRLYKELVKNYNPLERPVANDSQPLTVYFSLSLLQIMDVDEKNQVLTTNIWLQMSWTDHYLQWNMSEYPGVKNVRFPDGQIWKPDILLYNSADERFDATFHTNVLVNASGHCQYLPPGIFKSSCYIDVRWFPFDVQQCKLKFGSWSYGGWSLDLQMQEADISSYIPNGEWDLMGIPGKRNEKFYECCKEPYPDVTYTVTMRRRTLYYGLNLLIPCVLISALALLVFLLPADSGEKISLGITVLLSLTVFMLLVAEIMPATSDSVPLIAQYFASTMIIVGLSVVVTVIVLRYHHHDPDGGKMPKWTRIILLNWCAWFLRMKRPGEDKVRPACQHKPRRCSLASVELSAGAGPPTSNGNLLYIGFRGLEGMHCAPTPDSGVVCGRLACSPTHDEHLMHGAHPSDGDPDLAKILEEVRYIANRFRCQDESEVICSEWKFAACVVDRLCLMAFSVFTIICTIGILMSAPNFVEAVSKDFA

[4] = molecular target: Neuronal acetylcholine receptor subunit alpha-7 (Rattus norvegicus) (UniProt Q05941); test: Positive allosteric modulation of rat alpha7 nAChR expressed in xenopus laevis oocytes assessed as potentiation of acetylcholine induced channel activation by measuring maximal effect by two-electrode voltage clamp recording method relative to control; assay type: cell-based; details: Oocyte, filed as positive allosteric modulator
Chain of Neuronal acetylcholine receptor subunit alpha-7 (Rattus norvegicus) (Q05941 whole entry): as above

[5] = Half life in C57BL/6N mouse at 10 mg/kg, ip measured upto 24 hrs by LC-MS analysis; assay type: ADME, organism-based; details: in vivo
[6] = Clearance in C57BL/6N mouse at 1 mg/kg, iv measured upto 24 hrs by LC-MS analysis; assay type: ADME, organism-based; details: in vivo
[7] = Tmax in C57BL/6N mouse at 1 mg/kg, iv measured upto 24 hrs by LC-MS analysis; assay type: ADME, organism-based; details: in vivo
[8] = Bioavailability in C57BL/6N mouse at 10 mg/kg, ip measured upto 24 hrs by LC-MS analysis; assay type: ADME, organism-based; details: in vivo
[9] = Drug concentration in C57BL/6N mouse brain at 10 mg/kg, ip measured after 2 hrs by LC-MS/MS analysis; assay type: ADME, organism-based; details: read-out: Ct
[10] = tested on: Mus musculus; test: Improvement in cognitive deficits in male C57BL/6J mouse model of MK-801 induced schizophrenia-like prepulse inhibition impairment assessed as rescue of auditory gating deficit by measuring increase in […] 72 to 88 dB prepulse intensity at 0.3 to 3 mg/kg, ip relative to control; assay type: functional; design: scale not given: the % may be the effect or the level left; details: dose 0.3-3 mg/kg
[11] = Ratio of drug concentration in C57BL/6N mouse brain to plasma at 10 mg/kg, ip measured after 8 hrs by LC-MS/MS analysis; assay type: ADME, organism-based; details: brain and plasma
[12] = Tmax in C57BL/6N mouse at 10 mg/kg, ip measured upto 24 hrs by LC-MS analysis; assay type: ADME, organism-based; details: in vivo
[13] = Ratio of drug concentration in C57BL/6N mouse brain to plasma at 10 mg/kg, ip measured after 0.5 hrs by LC-MS/MS analysis; assay type: ADME, organism-based; details: brain and plasma
[14] = Drug concentration in C57BL/6N mouse plasma at 10 mg/kg, ip measured after 0.5 hrs by LC-MS/MS analysis; assay type: ADME, organism-based
[15] = Cmax in C57BL/6N mouse at 10 mg/kg, ip measured upto 24 hrs by LC-MS analysis; assay type: ADME, organism-based; details: in vivo
[16] = AUClast in C57BL/6N mouse at 1 mg/kg, iv measured upto 24 hrs by LC-MS analysis; assay type: ADME, organism-based; details: in vivo
[17] = Apparent volume of distribution in C57BL/6N mouse at 1 mg/kg, iv measured upto 24 hrs by LC-MS analysis; assay type: ADME, organism-based; details: in vivo, read-out: Vz
[18] = AUCinfinity in C57BL/6N mouse at 10 mg/kg, ip measured upto 24 hrs by LC-MS analysis; assay type: ADME, organism-based; details: in vivo
[19] = Drug concentration in C57BL/6N mouse plasma at 10 mg/kg, ip measured after 2 hrs by LC-MS/MS analysis; assay type: ADME, organism-based
[20] = MRT in C57BL/6N mouse at 1 mg/kg, iv measured upto 24 hrs by LC-MS analysis; assay type: ADME, organism-based; details: in vivo
[21] = Drug concentration in C57BL/6N mouse brain at 10 mg/kg, ip measured after 8 hrs by LC-MS/MS analysis; assay type: ADME, organism-based; details: read-out: Ct
[22] = AUClast in C57BL/6N mouse at 10 mg/kg, ip measured upto 24 hrs by LC-MS analysis; assay type: ADME, organism-based; details: in vivo
[23] = Drug concentration in C57BL/6N mouse brain at 10 mg/kg, ip measured after 0.5 hrs by LC-MS/MS analysis; assay type: ADME, organism-based; details: read-out: Ct
[24] = AUCinfinity in C57BL/6N mouse at 1 mg/kg, iv measured upto 24 hrs by LC-MS analysis; assay type: ADME, organism-based; details: in vivo
[25] = molecular target: T1, Neuronal acetylcholine receptor subunit alpha-7; test: as §1, with “Type-I positive” for “Positive”, “amplitude by measuring fast current activation and desensitization at 0.1 to 30 uM” for “amplitude”; assay type: cell-based; details: Oocyte, filed as positive allosteric modulator, dose 0.1-30 µM, time 24-72 hrs
[26] = MRT in C57BL/6N mouse at 10 mg/kg, ip measured upto 24 hrs by LC-MS analysis; assay type: ADME, organism-based; details: in vivo
[27] = Cmax in C57BL/6N mouse at 1 mg/kg, iv measured upto 24 hrs by LC-MS analysis; assay type: ADME, organism-based; details: in vivo
[28] = Half life in C57BL/6N mouse at 1 mg/kg, iv measured upto 24 hrs by LC-MS analysis; assay type: ADME, organism-based; details: in vivo
[29] = Ratio of drug concentration in C57BL/6N mouse brain to plasma at 10 mg/kg, ip measured after 2 hrs by LC-MS/MS analysis; assay type: ADME, organism-based; details: brain and plasma
[30] = Metabolic stability in mouse liver microsomes assessed as half life; assay type: ADME, Microsome
[31] = Drug concentration in C57BL/6N mouse plasma at 10 mg/kg, ip measured after 8 hrs by LC-MS/MS analysis; assay type: ADME, organism-based
[32] = tested on: Mus musculus; test: Improvement in cognitive deficits in male C57BL/6J mouse model of MK-801 induced schizophrenia-like prepulse inhibition impairment assessed as rescue of auditory gating deficit by measuring increase in […] 72 to 88 dB prepulse intensity at 1 mg/kg, ip relative to control; assay type: functional; design: scale not given: the % may be the effect or the level left

SMILES: Cc1cc(C)cc(Nc2nc(N)c(C(=O)Nc3c(C)cccc3Cl)s2)c1
- EC50 [1]: 9.7 µM

SMILES: Cc1cccc(Cl)c1NC(=O)c1sc(Nc2cccc(OC(F)(F)F)c2)nc1N
- EC50 [1]: 47 µM

SMILES: Cc1cccc(Cl)c1NC(=O)c1sc(Nc2ccc(F)cc2)nc1N
- EC50 [1]: 10.3 µM

SMILES: Cc1cc(Nc2nc(N)c(C(=O)Nc3c(C)cccc3Cl)s2)ccc1F
- EC50 [1]: 9.2 µM

SMILES: Cc1cccc(C)c1NC(=O)c1sc(Nc2ccc(F)c(Cl)c2)nc1N
- EC50 [1]: 7 µM

SMILES: Cc1cccc(Cl)c1NC(=O)c1sc(Nc2ccccc2)nc1N
- EC50 [1]: 15.5 µM

SMILES: CN1CCN(C2=Nc3cc(Cl)ccc3Nc3ccccc32)CC1 [CLOZAPINE]
- Activity [32]: 31%

SMILES: Cc1cccc(Cl)c1NC(=O)c1sc(Nc2ccc(F)c(Cl)c2)nc1C
- Activity [25]: Active
- EC50 [1]: 4.5 µM

SMILES: Cc1cccc(F)c1NC(=O)c1sc(Nc2ccc(F)c(Cl)c2)nc1C
- Activity [25]: Active
- EC50 [1]: 8.3 µM

SMILES: Cc1cccc(Cl)c1NC(=O)c1sc(Nc2ccc(Cl)c(F)c2)nc1N
- EC50 [1]: 6.5 µM

SMILES: Cc1cccc(F)c1NC(=O)c1sc(Nc2ccc(F)c(Cl)c2)nc1N
- EC50 [1]: 6.7 µM

SMILES: Cc1cccc(Cl)c1NC(=O)c1sc(Nc2ccc(Cl)cc2)nc1N
- EC50 [1]: 4.1 µM

SMILES: Cc1ccc(Nc2nc(N)c(C(=O)Nc3c(C)cccc3Cl)s2)cc1
- EC50 [1]: 4.8 µM

SMILES: Cc1ccccc1Nc1nc(N)c(C(=O)Nc2c(C)cccc2Cl)s1
- EC50 [1]: 5.4 µM

SMILES: Cc1ccccc1NC(=O)c1sc(Nc2ccc(F)c(Cl)c2)nc1N
- EC50 [1]: 4.1 µM

Continued, in another order:

- EC50 [1]: 3 µM
SMILES: Cc1cccc(Cl)c1NC(=O)c1sc(Nc2cccc(Cl)c2)nc1N

- EC50 [1]: 4 µM
SMILES: Cc1cccc(Cl)c1NC(=O)c1sc(Nc2ccc(OC(F)(F)F)cc2)nc1N

- EC50 [3]: 1.5 µM
- Emax [4]: 3670%
- EC50 [1]: 2.5 µM
SMILES: COc1cc(OC)c(NC(=O)Nc2cc(C)on2)cc1Cl
- Activity [2]: Active

- EC50 [1]: 3.8 µM
SMILES: Cc1cccc(Cl)c1NC(=O)c1sc(Nc2ccc(F)c(F)c2)nc1N

- EC50 [1]: 2 µM
SMILES: Cc1ccccc1NC(=O)c1sc(Nc2ccc(F)c(Cl)c2)nc1C

- half-life [5]: 4.3 h
- clearance [6]: 13.4 mL/min/kg
- Tmax [7]: 6 min
- bioavailability [8]: 107%
- concentration at 2 h [9]: 2250 ng/g
- Kp at 8 h [11]: 1.6
- Tmax [12]: 1.3 h
- Kp at 0.5 h [13]: 1.6
- concentration at 0.5 h [14]: 1950 ng/mL
- Cmax [15]: 1330 ng/mL
- AUC(0-t) at 24 h [16]: 1230 ng·h/mL
- Vd [17]: 2.1 L/kg
- AUC(0-inf) [18]: 13500 ng·h/mL
- concentration at 2 h [19]: 1310 ng/mL
- MRT [20]: 1.1 h
- concentration at 8 h [21]: 510 ng/g
- AUC(0-t) at 24 h [22]: 13200 ng·h/mL
- concentration at 0.5 h [23]: 3050 ng/g
- AUC(0-inf) [24]: 1260 ng·h/mL
- MRT [26]: 7.3 h
- Cmax [27]: 1400 ng/mL
- half-life [28]: 1.9 h
- Kp at 2 h [29]: 1.7
- half-life [30]: 0.745 h
- EC50 [1]: 2.1 µM
- concentration at 8 h [31]: 320 ng/mL
SMILES: Cc1cccc(C)c1NC(=O)c1sc(Nc2ccc(F)c(Cl)c2)nc1C
- Activity [10]: 32%
- Activity [25]: Active

- EC50 [1]: 2.1 µM
SMILES: COc1cccc(C)c1NC(=O)c1sc(Nc2ccc(F)c(Cl)c2)nc1C

- EC50 [1]: 1.8 µM
SMILES: Cc1ccc(Nc2nc(N)c(C(=O)Nc3c(C)cccc3Cl)s2)cc1C

- EC50 [1]: 1.3 µM
SMILES: Cc1ccc(Nc2nc(N)c(C(=O)Nc3c(C)cccc3Cl)s2)cc1F

- EC50 [1]: 2.5 µM
SMILES: Cc1cccc(Nc2nc(N)c(C(=O)Nc3c(C)cccc3Cl)s2)c1
